Structures are written as SMILES. “And” between values parts separate entries of the source, which are not always exact repeats. Equal values may be shown once. Where a name gives a salt, the structure may show the parent alone.

For orientation: LD50 means the dose expected to kill half of the subjects tested. A higher LD50 goes with lower toxicity. What is called NOAEL is the highest tested level that showed no adverse finding. A word on the LOAEL: it is the lowest tested level that showed an adverse finding.

For this data set, the system named is Rattus norvegicus. Particulars: for LC50 / LD50: acute.
[1] abbreviates: reproduction developmental, oral, gavage, Wistar.
Setting [2] is: repeat dose other, inhalation, Sprague-Dawley.
Setting [3] is: subchronic, duration: 3 months, inhalation, Sprague-Dawley.
[4] abbreviates: chronic, duration: 16 weeks, oral, diet, Wistar.

`COC(=O)CC(C)(C)C(Cl)CC(Cl)(Cl)Cl` (stereo not given) showed an LC50 (inhalation, Sprague-Dawley) above 66.6 mg/m3. The same compound registered an LD50 (oral, Sprague-Dawley) above 5000 mg/kg.
Take `CC(C)C(=O)OCC(C)(C)C(OC(=O)c1ccccc1C(=O)OCc1ccccc1)C(C)C` (stereo not given): the LD50 (oral, gavage, Sprague-Dawley) is above 18500 mg/kg.
For the compound `CC(C)CC(C)OP(=S)([S-])OC(C)CC(C)C.CC(C)CC(C)OP(=S)([S-])OC(C)CC(C)C.[Zn+2]` (stereo not given), the LD50 (oral, gavage, Sprague-Dawley) was ≥ 2000 mg/kg and ≤ 5000 mg/kg.
The compound `COC(=O)C1C(C=C(Cl)Cl)C1(C)C` (stereo not given) yielded a 50% lethal dose (LD50) (oral, gavage, Sprague-Dawley) above 5000 mg/kg. Where the note is “reproduction developmental, duration: 28 days, oral, gavage, Sprague-Dawley”, this compound returned a no observed adverse effect level (NOAEL) of 450 mg/kg-day.
Consider `Cc1cccc2[nH]c([S-])nc12.Cc1cccc2[nH]c([S-])nc12.[Zn+2]`, for which the LD50 by setting is: (dermal, semiocclusive, Sprague-Dawley) above 2000 mg/kg; (oral) 800 mg/kg. Also, under “inhalation, Sprague-Dawley”, the LC50 was above 2.03 µg/mL.
Compound `c1ccc(-c2cccc(-c3ccccc3)c2)cc1` [1,1':3',1''-Terphenyl] displayed an LD50 (oral, gavage, Sprague-Dawley) of 2400 mg/kg. The “LOAEL (% diet)” value (short-term, duration: 14 days, oral, diet, Wistar) stood at 0.2.
`O=C1OCCO1` [1,3-Dioxolan-2-one]: the LD50 is, setting by setting: (dermal, Wistar) above 2000 mg/kg; (oral, Sprague-Dawley) above 5000 mg/kg. Moreover, the NOAEL (reproduction developmental, duration: 9 days, oral, gavage, F, Sprague-Dawley) was 1500 mg/kg-day and 750 mg/kg-day.
For the compound `C1=C\CC/C=C\CC/1` [1,5-Cyclooctadiene], the LD50 is above 3520 mg/kg (dermal, occlusive, Crl:CD1) and 2380 mg/kg (oral). The NOAEL (short-term, duration: 2 weeks, inhalation, M) turned out to be 664 mg/m3.
As to `C=CCC` [1-Butene], the NOAEL turned out to be 18400 mg/m3 (reproduction developmental, duration: 28 days, inhalation, Sprague-Dawley, generation: F0); 18400 mg/m3 (reproduction developmental, inhalation, F, Sprague-Dawley); 18400 mg/m3 (reproduction developmental, inhalation, M, Sprague-Dawley); 18400 mg/m3 (reproduction developmental, inhalation, Sprague-Dawley, generation: F0); 18400 mg/m3 (reproduction developmental, inhalation, Sprague-Dawley, generation: F1).
As for `O=[N+]([O-])c1cccc(Cl)c1` [1-Chloro-3-nitrobenzene], the 50% lethal dose (LD50) (oral, gavage, Sprague-Dawley) amounted to 400 mg/kg.
With `CCC(C)(C#N)N=NC(C)(C#N)CC` (stereo not given) [2,2'-Azobis(2-methylbutanenitrile)], for the setting “oral, Sprague-Dawley”, the 50% lethal dose (LD50) is 337 mg/kg.
As to `Clc1cc(Cl)c(Cl)nc1Cl` [2,3,5,6-Tetrachloropyridine], the median lethal dose (LD50) (oral) was ≥ 1180 mg/kg and ≤ 1410 mg/kg; the 50% lethal dose (LD50) (oral, gavage) came out at 1000 mg/kg. For the same compound, the NOAEL reads like this: (chronic, duration: 91 days, oral, diet, Sherman Wistar) 100 mg/kg-day; (reproduction developmental, duration: 52 days, oral, gavage, F, Sprague-Dawley) 25 mg/kg-day; (reproduction developmental, duration: 52 days, oral, gavage, M, Sprague-Dawley) 150 mg/kg-day; (reproduction developmental, duration: 52 days, oral, gavage, Sprague-Dawley) 150 mg/kg-day; (reproduction developmental, duration: 52 days, oral, gavage, Sprague-Dawley, generation: F1) 150 mg/kg-day; (subchronic, duration: 52 days, oral, gavage, F, Sprague-Dawley) 25 mg/kg-day. Further, the NOAEL (subchronic, duration: 52 days, oral, gavage, M, Sprague-Dawley) is 150 mg/kg-day.
On to `CC(C)(C)c1cc(C(C)(C)C)c(O)c(C(C)(C)C)c1` [2,4,6-Tris(tert-butyl)phenol], for which the LD50 (oral, Wistar) was 1610 mg/kg and 1670 mg/kg. For the same compound, where the note is “chronic, duration: 24 months, oral, diet, Wistar”, the no observed adverse effect level (NOAEL) was 2.34 mg/kg-day.
`CC=C(C)C` [2-Methyl-2-butene] registered an NOAEL (reproduction developmental, duration: 28 days, inhalation, Sprague-Dawley) of 1660 mg/m3 and a no-observed-adverse-effect level (NOAEL) (reproduction developmental, inhalation, Sprague-Dawley) of 20100 mg/m3.
With `CC(CC(=O)O)CC(C)(C)C` (stereo not given) [3,5,5-Trimethylhexanoic acid], the NOAEL runs as follows: (reproduction developmental, oral, diet, F, Sprague-Dawley) 1200 ppm; (reproduction developmental, oral, diet, Sprague-Dawley, generation: F1) 1200 ppm.
In the case of `Cc1ccc(S(=O)(=O)O)cc1` [4-Methylbenzenesulfonic acid], the median lethal dose (LD50) (oral, Wistar) was 1410 mg/kg. For the same compound, the no observed adverse effect level (NOAEL) (short-term, duration: 28 days, oral, Wistar) is above 500 mg/kg-day.
`C=CCCC#N` [4-Pentenenitrile]: the LC50 (inhalation, Sprague-Dawley) amounted to 8460 mg/m3.
The compound `CSC(C)(C)/C=N/O` [Aldicarb oxime] returned a median lethal dose (LD50) (oral, Wistar) of 809 mg/kg. In addition, under setting [1], the LOAEL came to 25 mg/kg-day and the no observed adverse effect level (NOAEL) turned out to be 5 mg/kg-day.
Where the note is “oral, gavage, Wistar”, `CC(C)CC(C)OC(=O)/C=C\C(=O)OC(C)CC(C)C` (stereo not given) [Bis(1,3-dimethylbutyl) maleate] gave an LD50 of 7460 mg/kg.
With `CC(=O)C(N=Nc1ccc(-c2ccc(N=NC(C(C)=O)C(=O)Nc3ccccc3)c(Cl)c2)cc1Cl)C(=O)Nc1ccccc1` (stereo not given) [C.I. Pigment Yellow 12], the no observed adverse effect level (NOAEL) was determined as 1000 mg/kg-day (reproduction developmental, oral, gavage, Wistar, generation: F0) and 1000 mg/kg-day (reproduction developmental, oral, gavage, Wistar, generation: F1).
Turning to `CC(=O)C(=NNc1ccc(-c2ccc(NN=C(C(C)=O)C(=O)Nc3ccc(C)cc3C)c(Cl)c2)cc1Cl)C(=O)Nc1ccc(C)cc1C` [C.I. Pigment Yellow 13], under “chronic, oral, gavage”, the NOAEL was determined as 500 mg/kg-day.
Compound `CCCCCCCCCCCCOCCOCCOS(=O)(=O)[O-].[Na+]` [Diethylene glycol monolauryl ether sulfate sodium salt] displayed a 50% lethal dose (LD50) (oral, gavage, Sprague-Dawley) above 5000 mg/kg.
With `CC(C)OC(=O)CCCCC(=O)OC(C)C` [Diisopropyl adipate], the LD50 (oral) is above 15000 mg/kg.
Take `CCCCCCCCCCCCCCN(C)C` [Dimethyl(tetradecyl)amine]: the LD50 by setting is: (oral, gavage) 2120 mg/kg; (oral, gavage, Wistar) 1320 mg/kg.
Under “oral, gavage, Sprague-Dawley”, `c1ccc(Oc2ccccc2)cc1` [Diphenyl oxide] showed an LD50 of 2450 mg/kg. Further, the NOAEL was at least 500 mg/kg-day (developmental, duration: 10 days, oral, gavage, Sprague-Dawley); at least 50 mg/kg-day (reproduction developmental, duration: 10 days, oral, gavage, F, Sprague-Dawley); above 480 mg/kg-day (subchronic, duration: 13 weeks, oral, diet, Sprague-Dawley).
The compound `CCCCCCCCCCCOC(=O)c1ccccc1C(=O)OCCCCCCCCCCC` [Diundecyl phthalate] gave an NOAEL (short-term, duration: 21 days, oral, diet, Fischer 344) of 282 mg/kg-day.
In the case of `O=C(OCCOCCOCCOC(=O)c1ccccc1)c1ccccc1` [Ethylenebis(oxyethylene) dibenzoate], the LD50 runs as follows: (dermal, Sprague-Dawley) above 2000 mg/kg; (oral, Sprague-Dawley) 4190 mg/kg and 3540 mg/kg and 4840 mg/kg. The same compound had a no observed adverse effect level (NOAEL) (developmental, duration: 14 days, oral, gavage, Sprague-Dawley) of 1000 mg/kg-day; an NOAEL (subchronic, duration: 13 weeks, oral, diet, F) of 1000 mg/kg-day; an NOAEL (subchronic, duration: 13 weeks, oral, diet, M) of 1000 mg/kg-day.
`Fc1ccccc1` [Fluorobenzene]: the LC50 (inhalation) worked out at 26900 mg/m3. The no-observed-adverse-effect level (NOAEL) by setting is: (short-term, duration: 28 days, inhalation, F, Sprague-Dawley) 0.37 mg/L; (short-term, duration: 28 days, inhalation, M, Sprague-Dawley) 0.37 mg/L.
For the setting “oral, gavage”, `CCCCCCC(C)OC(=O)CCCCC(=O)OC(C)CCCCCC` (stereo not given) [Hexanedioic acid, bis(1-methylheptyl) ester] registered an LD50 above 64000 mg/kg.
With `CCCCCCCCCCCCCCCCCC(=O)[O-].[Li+]` [Lithium octadecanoate], the LC50 (oral) was ≥ 5000 mg/kg and ≤ 15000 mg/kg.
On to `CS` [Methanethiol], for which the LC50 is 1330 mg/m3 and ≥ 1260 mg/m3 and ≤ 1390 mg/m3 (inhalation, Sprague-Dawley); 3310 mg/m3 and ≥ 2810 mg/m3 and ≤ 3900 mg/m3 (inhalation, WBS/W). Besides, the LOAEL runs as follows: under setting [2], 112 mg/m3; under setting [3], 112 mg/m3. For the same compound, the no-observed-adverse-effect level (NOAEL) by setting is: under setting [2], 33.4 mg/m3; under setting [3], 33.4 mg/m3.
Consider `CCCCCCCCCCCCCCCCN(C)C` [N,N-Dimethyl-1-hexadecanamine], for which the LD50 was 1020 mg/kg (oral, gavage) and above 2000 mg/kg (oral, gavage, Sprague-Dawley).
For the setting “dermal, occlusive, Crl:CD(SD) BR”, `O=P(O)(O)c1ccccc1` [Phenylphosphonic acid] showed an LD50 above 2000 mg/kg.
`CCCCOP(=O)(O)OCCCC` [Phosphoric acid, dibutyl ester] yielded an NOAEL (subchronic, oral, gavage, Sprague-Dawley) of 30 mg/kg-day.
For the compound `CCCCCCCC/C=C\CCCCCCCC(=O)OC[C@@H](O)[C@H]1OC[C@H](O)[C@H]1O` [Sorbitan, mono-(9Z)-9-octadecenoate], the LD50 was above 39800 mg/kg (oral, gavage) and above 39800 mg/kg (oral, gavage, Wistar). Moreover, under setting [4], the “LOAEL (% diet)” value was found to be 2.5. Further, the NOAEL reads like this: under setting [4], 1700 mg/kg-day; (chronic, oral, diet) 1450 mg/kg-day. Also, the “NOAEL (% diet)” value (chronic, oral, diet) came out at 2.5.
For the compound `c1ccc(-c2cccc(-c3ccccc3)c2)cc1` [Terphenyl], the LC50 (oral, gavage, Sprague-Dawley) was above 5000 mg/kg.
In the case of `CC(O)CN(CC(C)O)CC(C)O` (stereo not given) [Triisopropanolamine], the 50% lethal dose (LD50) (oral, gavage, Wistar) was determined as 6500 mg/kg. Moreover, the no observed adverse effect level (NOAEL) by setting is: (chronic, duration: 102 weeks, oral, diet, Wistar) above 1220 mg/kg-day; (developmental, duration: 6 days, oral, gavage, Wistar) at least 1000 mg/kg-day; (reproduction developmental, duration: 6 days, oral, gavage, F, Wistar) 400 mg/kg-day.
Where the note is “oral”, `CCCCCCCCCCCC#N` [n-Undecyl cyanide] showed a 50% lethal dose (LD50) above 3400 mg/kg.

Source of the values: EPA's ToxValDB 9.5.
